The text below walks through data of article PMC11928319 (Nature Plants, 2025).

The subject of data set [1] is filter-sterile supernatant of Rhodanobacter R179 (secreted peptidase(s)). In words: Peptide quantification by mass spectrometry after incubation in cell-free supernatant of Rhodanobacter R179. It counts as in vitro ADME. The conditions noted are these: for peptide detected by mass spectrometry after incubation in supernatant of the R179 dssAB mutant / peptide detected by mass spectrometry after incubation in supernatant of wild-type R179: 1 µM peptide, 1 h, LC-MS MS1 peak area; for peptide detected by mass spectrometry after incubation in supernatant of the R179 dssAB mutant: filter-sterile supernatant of dssAB mutant cultivated in XVM2 (OD600 = 0.4), n = 3; for peptide detected by mass spectrometry after incubation in supernatant of wild-type R179: filter-sterile supernatant of wild-type R179 cultivated in XVM2 minimal medium (OD600 = 0.4), light chamber, n = 3 culture supernatants. How it is done:
Elicitors were also supplemented into the medium prior to solidification at a final concentration of 1 µM. The flg22 ([…]) and AtPep1 ([…]) peptides were synthesized by EZbiolab. elf18^R179 (Ac-[…]) and elf18 (Ac-[…]) were synthesized by GenScript and EZbiolab, respectively. For inoculation with the bacterial supernatant, bacteria were cultivated overnight in XVM2 minimal medium (20 mM NaCl, 10 mM (NH4)2SO4, 5 mM MgSO4, 1 mM CaCl2, 0.16 mM KH2PO4, 0.32 mM K2HPO4, 0.01 mM FeSO4, 10 mM fructose, 10 mM sucrose, 0.03% Casamino acids, pH 6.7)[76] to a final concentration of OD600 = 0.4. Bacteria were pelleted by centrifugation (11,600 g, 2 min), and the supernatant was sterile-filtered using filter units with MF-Millipore membrane (0.22 µm; Millex). The supernatant was incubated in boiling water for 30 min for heat treatment. Then, 25 ml of 1× MS with 20 g l^−1 Bacto Agar was mixed with 25 ml of supernatant prior to medium solidification and poured into square petri dishes. Sterilized seeds were placed on solidified agar in square petri dishes and vertically incubated for 14 days.
Bacterial supernatants were prepared as described in ‘Agar-based cultivation of axenic plants and co-cultivation with bacteria, bacterial supernatants and elicitors’. Here, additionally, the peptides dRGF1 (DYSNPGHHP-Hyp-RHN) and PSY1 (D-Y(SO3H)-[…]-Hyp-Hyp-S) synthesized by Scilight Peptide were incubated for 1 h with 1 µM of peptides in a plant cultivation light chamber (day-light condition; see ‘Plant cultivation conditions’), and the samples were frozen at −20 °C until further processing. For the investigation of AtPep1 degradation, the AtPep1 peptide was first modified by acetylation (six to seven times). To this end, 100-µl aliquots of peptides were treated with 10 µl of NHS acetate solution (1 M NHS acetate in 50% ACN/PBS) and incubated for 30 min with shaking. The reaction was quenched by the addition of 100 µl of 100 mM Tris-HCl (pH 8.5) and incubated for 10 min. For comparison of the non-acetylated peptides with the above-described modified AtPep1 peptides, aliquots of the non-acetylated peptides were processed as described above, but without the modifying NHS reaction. To this end, 100-µl aliquots of the sample were mixed with 100 µl of PBS buffer (137 mM NaCl, 2.7 mM KCl, 10 mM Na2HPO4, 1.8 mM KH2PO4; pH 7.4). The samples were then further diluted with 100 µl of 100 mM Tris-HCl (pH 8.5) and incubated for 10 min. All samples were acidified with 5 µl of TFA and desalted using StageTips with C18 Empore disk membranes (3M)[109]. The samples were dried in a vacuum evaporator and dissolved in 10 µl of 2% ACN (0.1% TFA for analysis).
The samples were analysed using an EASY-nLC 1200 (Thermo Fisher) coupled to a QExactive Plus mass spectrometer (Thermo Fisher). Peptides were separated on 16-cm frit-less silica emitters (New Objective, 75 µm inner diameter), packed in-house with reversed-phase ReproSil-Pur C18 AQ 1.9 µm resin (Dr. Maisch). Peptides were loaded on the column and eluted for 50 min using a segmented linear gradient of 5% to 95% solvent B (0 min, 5% B; 0–5 min, 15% B; 5–35 min, 50% B; 35–45 min, 95% B; 45–50 min, 95% B) (solvent A: 0% ACN, 0.1% FA; solvent B: 80% ACN, 0.1% FA) at a flow rate of 300 nl min^−1. Mass spectra were acquired in data-dependent acquisition mode with a TOP10 method. Mass spectrometry spectra were acquired in the Orbitrap analyser with a mass range of 300–1,500 m/z at a resolution of 70,000 full width at half maximum (FWHM) and a target value of 3 × 10^6 ions. Precursors were selected with an isolation window of 1.3 m/z. Higher-energy collision dissociation (HCD) fragmentation was performed at a normalized collision energy of 25. Tandem mass spectrometry (MS/MS) spectra were acquired with a target value of 5 × 10^5 ions at a resolution of 17,500 FWHM, a maximum injection time of 85 ms and a fixed first mass of 100 m/z. […]

Data set [2] can be described thus: supernatant of the R179 dssAB mutant grown in XVM2 minimal medium supplemented with 10% TSB. To be noted: Rhodanobacter R179 dssAB mutant, plant cultivation light chamber (day-light condition; 21 °C), up to 1 h.
Data set [3] in a line: supernatant of wild-type R179 grown in XVM2 medium supplemented with 10% carbon-rich medium (tryptic soy broth). The conditions noted are these: Rhodanobacter R179, plant cultivation light chamber (day-light condition; 21 °C), up to 1 h.
Data set [4] in a line: filter-sterile supernatant of wild-type Rhodanobacter R179 cultivated in XVM2 medium (bacterial culture: OD600 = 0.4). To be noted: Rhodanobacter R179, plant cultivation light chamber (day-light condition; 21 °C), up to 1 h.
Data set [5] can be described thus: filter-sterile supernatant of the Rhodanobacter R179 dssAB mutant cultivated in XVM2 medium (bacterial culture: OD600 = 0.4). The conditions noted are these: plant cultivation light chamber (day-light condition; 21 °C), up to 1 h.
The mark [6] stands for this setting: R179 dssAB mutant supernatant, XVM2 medium, incubation 1h, MS1 precursor area, replicate 1.
The mark [7] stands for this setting: R179 dssAB mutant supernatant, XVM2 medium, incubation 1h, MS1 precursor area, replicate 2.
The mark [8] stands for this setting: R179 dssAB mutant supernatant, XVM2 medium, incubation 1h, MS1 precursor area, replicate 3.
The mark [9] stands for this setting: R179 dssAB mutant supernatant, XVM2 medium, incubation 1h, peptide relative to axenic, replicate 1.
Where [10] appears, read: R179 dssAB mutant supernatant, XVM2 medium, incubation 1h, peptide relative to axenic, replicate 2.
Where [11] appears, read: R179 dssAB mutant supernatant, XVM2 medium, incubation 1h, peptide relative to axenic, replicate 3.
Where [12] appears, read: R179 wt supernatant, XVM2 medium, incubation 1h, MS1 precursor area, replicate 1.
[13] abbreviates: R179 wt supernatant, XVM2 medium, incubation 1h, MS1 precursor area, replicate 2.
Where [14] appears, read: R179 wt supernatant, XVM2 medium, incubation 1h, MS1 precursor area, replicate 3.
Setting [15] is: R179 wt supernatant, XVM2 medium, incubation 1h, peptide relative to axenic, replicate 1.
[16] abbreviates: R179 wt supernatant, XVM2 medium, incubation 1h, peptide relative to axenic, replicate 2.
The mark [17] stands for this setting: R179 wt supernatant, XVM2 medium, incubation 1h, peptide relative to axenic, replicate 3.
[18] abbreviates: axenic XVM2 medium control, incubation 1h, MS1 precursor area, replicate 1.
Where [19] appears, read: axenic XVM2 medium control, incubation 1h, MS1 precursor area, replicate 2.
Setting [20] is: axenic XVM2 medium control, incubation 1h, MS1 precursor area, replicate 3.
The mark [21] stands for this setting: axenic XVM2 medium control, incubation 1h, peptide relative to axenic, replicate 1.
The mark [22] stands for this setting: axenic XVM2 medium control, incubation 1h, peptide relative to axenic, replicate 2.
[23] abbreviates: axenic XVM2 medium control, incubation 1h, peptide relative to axenic, replicate 3.

Where a SMILES comes first, the peptide text is derived from it. [ ]: non-standard residue; d: D form. Hyp = O=C(O)[C@@H]1C[C@@H](O)CN1

Take `N=C(N)NCCC[C@H](NC(=O)[C@@H]1C[C@@H](O)CN1C(=O)[C@@H]1CCCN1C(=O)[C@H](Cc1c[nH]cn1)NC(=O)[C@H](Cc1c[nH]cn1)NC(=O)CNC(=O)[C@@H]1CCCN1C(=O)[C@H](CC(N)=O)NC(=O)[C@H](CO)NC(=O)[C@H](Cc1ccc(O)cc1)NC(=O)[C@@H](N)CC(=O)O)C(=O)N[C@@H](Cc1c[nH]cn1)C(=O)N[C@@H](CC(N)=O)C(=O)O` [dRGF1] (H-DYSNPGHHP[Hyp]RHN-OH): the “peptide detected by mass spectrometry after incubation in supernatant of the R179 dssAB mutant” value in data set [1] is listed as “still detected”. Besides, the “peptide detected by mass spectrometry after incubation in supernatant of wild-type R179” value in data set [1] is given as “still detected”. Further, the “Log10(total_area_MS1)” value in data set [1] (setting [6]) is given as 8.738; in data set [1] (setting [7]), 8.7982; in data set [1] (setting [8]) it was 8.898; in data set [1] (setting [12]), 8.685; in data set [1] (setting [13]) it was 8.632; in data set [1] (setting [14]), 8.682. For the same molecule, the “Log10(total_area_MS1)” value is 8.595 in data set [1] (axenic XVM2_TSB, 1h, 1 µM, LC-MS [M+2H], replicate 2); 8.5 in data set [1] (axenic XVM2_TSB, 1h, 1 µM, LC-MS [M+2H], replicate 3); 8.337 in data set [1] (setting [18]); 8.259 in data set [1] (setting [19]); 8.171 in data set [1] (setting [20]); 8.931 in data set [1] (supernatant of wt R179 grown in XVM2_TSB, 1h, 1 µM, LC-MS [M+2H], replicate 1). Also, the “Log10(total_area_MS1)” value in data set [1] (supernatant of wt R179 grown in XVM2_TSB, 1h, 1 µM, LC-MS [M+2H], replicate 2) is reported as 9.001. For the same molecule, the percent_rel_axenic in data set [1] (setting [9]) stood at 299.876%; in data set [1] (setting [10]) it was 344.476%; in data set [1] (setting [11]) it was 433.442%; in data set [1] (setting [15]) it was 265.464%; in data set [1] (setting [16]) it was 235.074%; in data set [1] (setting [17]), 263.706%. In addition, the percent_rel_axenic came to 103.573% in data set [1] (axenic XVM2_TSB, 1h, 1 µM, LC-MS, relative to axenic, replicate 2); 83.3448% in data set [1] (axenic XVM2_TSB, 1h, 1 µM, LC-MS, relative to axenic, replicate 3); 119.158% in data set [1] (setting [21]); 99.6152% in data set [1] (setting [22]); 81.2268% in data set [1] (setting [23]); 225.002% in data set [1] (supernatant of wt R179 grown in XVM2_TSB, 1h, 1 µM, LC-MS, relative to axenic, replicate 1). This molecule had a percent_rel_axenic in data set [1] (supernatant of wt R179 grown in XVM2_TSB, 1h, 1 µM, LC-MS, relative to axenic, replicate 2) of 263.948%.
As to “D-Y(SO3H)-GDPSANPKHDPGV-Hyp-Hyp-S [PSY1, root-growth-promoting sulfated PSY1 peptide]”, the “peptide detected by mass spectrometry after incubation in supernatant of the R179 dssAB mutant” value in data set [1] is “still detected”. Also, the “peptide detected by mass spectrometry after incubation in supernatant of wild-type R179” value in data set [1] is recorded as “still detected”. For the same molecule, the “Log10(total_area_MS1)” value in data set [1] (setting [6]) was 9.656; in data set [1] (setting [7]), 9.68; in data set [1] (setting [8]), 9.49; in data set [1] (setting [12]), 9.465; in data set [1] (setting [13]), 9.6971; in data set [1] (setting [14]), 9.627. Further, the “Log10(total_area_MS1)” value in data set [1] (setting [18]) was determined as 10.5778; in data set [1] (setting [19]), 10.3906; in data set [1] (setting [20]) it was 10.2645. Also, the percent_rel_axenic in data set [1] (setting [9]) is listed as 16.8242%; in data set [1] (setting [10]), 17.7896%; in data set [1] (setting [11]), 11.4643%; in data set [1] (setting [15]), 10.8248%; in data set [1] (setting [16]), 18.4872%; in data set [1] (setting [17]), 15.7291%. The percent_rel_axenic is 140.453% in data set [1] (setting [21]), 91.2772% in data set [1] (setting [22]) and 68.27% in data set [1] (setting [23]).
With DYSNPGHHP-Hyp-RHN, the not cleaved result in data set [2] is “peak area above 100% relative to mock (Extended Data Fig. 7d)”; in data set [3], “peak area above 100% relative to mock (Extended Data Fig. 7d)”; in data set [4], “still detected after 1 h; peak area above 100% relative to mock (Fig. 4a)”; in data set [5], “still detected after 1 h; peak area above 100% relative to mock (Fig. 4a)”.
